Laboratory results published in patent US10398710B2, “Method for screening regulator of mitochondrial fission” (priority 2015, dated 2019).
≈ marks a conversion by molar mass, not a printed value. Peptide text beside a SMILES is read from it. * marks the point of attachment. Cbz = O=C(OCc1ccccc1)*; CH2F = FC*

Legend:
[1] = system: MCF-7 cells; experiment: Effect of PARP or caspase-9 inhibitor on the anticancer effect of doxorubicin with C-K or PPD; type: cell-based, human; conditions: for anticancer effect of doxorubicin in cells treated with the inhibitor: all control and experiment groups, 5 μg/mL doxorubicin 24 hours; for anticancer activity of doxorubicin under PARP activity inhibitor with ginsenoside: 10 μg/mL ginsenoside and 5 μg/mL doxorubicin
Protocol: Specifically, a culture medium containing 10 μg/mL of C-K or PPD was added to MCF-7 cells already treated with Z-LEHD-FMK, an inhibitor of caspase-9, or 3-AB, an inhibitor of PARP, was cultured for 12 hours, and was then replaced with a culture medium containing 10 μg/mL of C-K or PPD and 0 g/mL or 5 μg/mL of doxorubicin, followed by 24 hours of culturing. Western blot analysis was performed using the cultured cells in the same manner as above (FIG. 3c).

[2] = system: MCF-7 cells; experiment: WST-1 viability of MCF-7 cells treated with PPD-type ginsenoside compounds; type: cell-based, human; conditions: MCF-7, 0-200 μg/mL, 24 hours
Protocol: First, MCF-7 cells, a human breast cancer cell line, were inoculated in a DMEM culture medium containing 10% FBS and 1% penicillin/streptomycin, and were then cultured at conditions of 37° C. and 5% CO2. When the cultured MCF-7 cells were saturated, subculture thereof was followed in a three- to five-day interval.
The cultured MCF-7 cells were treated with the PPD-type ginsenoside compounds (F2, Rh2, C-K, or PPD) at various concentrations (0, 5, 10, 20, 50, 100, or 200 μg/mL) for 24 hours, and WST-1 analysis was then performed on the cells to measure viability thereof (FIG. 1). The WST-1 analysis was performed by inoculating each cell in a culture medium containing 10% EZ-Cytox and reacting at 37° C. for 1.5 hours, followed by measuring a level of water-soluble formazan dye produced by the viable cells as absorbance (450 nm) and analyzing the same to calculate the cell viability.

[3] = system: MCF-7 cells; experiment: WST-1 viability of MCF-7 cells pretreated with ginsenoside, then treated with doxorubicin or tamoxifen; type: cell-based; conditions: for effect on anticancer activity of doxorubicin / anticancer activity with doxorubicin compared to only doxorubicin: 10 μg/mL ginsenoside 12 hours; for effect on anticancer activity of doxorubicin: then 5 μg/mL doxorubicin 12 hours; for anticancer activity with doxorubicin compared to only doxorubicin: then doxorubicin 0-50 μg/mL 24 hours
Protocol: Specifically, 10 μg/mL of PPD-type ginsenoside compound (F2, Rh2, C-K, or PPD) was added to the MCF-7 cells and was cultured for 12 hours. 20 μM of tamoxifen or 5 μg/mL of doxorubicin was then treated, and 12 hours of culturing was performed. Upon completion of the culturing, viability of MCF-7 cells was compared via WST-1 analysis (FIG. 2a).
Accordingly, in order to investigate whether C-K or PPD has an effect on a treatment concentration of doxorubicin, 10 μg/mL of the PPD-type ginsenoside compound (C-K or PPD) was added and cultured for 12 hours. Doxorubicin at various concentrations (0, 0.1, 0.5, 1, 2, 5, 10, and 50 μg/mL) was then treated and cultured for 24 hours, followed by comparing viabilities of the MCF-7 cells and also comparing LC50 values calculated therefrom via WST-1 analysis (FIG. 2b).

[4] = system: MCF-7 cells; experiment: Western blot of apoptosis-related proteins (pJNK, cleaved-PARP, cleaved-caspase-9); type: cell-based, human; conditions: for level of cleaved-PARP, effect of ginsenoside treatment / level of cleaved-caspase-9, effect of ginsenoside treatment / level of pJNK, effect of ginsenoside treatment: 10 μg/mL ginsenoside with 5 μg/mL doxorubicin
Protocol: A culture medium containing 10 μg/mL of C-K or PPD was added to the MCF-7 cells, was cultured for 12 hours, and was then replaced with a culture medium containing 10 μg/mL of C-K or PPD and 0 g/mL or 5 μg/mL of doxorubicin, followed by 24 hours of culturing. The cultured cells were destroyed, and Western blot analysis was performed using a pJNK antibody, PARP antibody, cleaved-PARP antibody, caspase-9 antibody, or cleaved-caspase-9 antibody (FIG. 3a).
Accordingly, a culture medium containing 10 μg/mL of PPD was added to the MCF-7 cells, was cultured for 12 hours, and was then replaced with a culture medium containing 10 μg/mL of PPD and 5 μg/mL of doxorubicin, followed by 0, 0.5, 1, 2, 4, or 6 hours of culturing. Western blot analysis was performed using the cultured cells in the same manner as above (FIG. 3b). As a comparison group, cells cultured in a culture medium containing doxorubicin only was used instead of that containing both PPD and doxorubicin.

[5] = system: MCF-7 cells; experiment: Cytochrome-C release from mitochondria, immunofluorescent staining; type: cell-based, human; conditions: for increase in level of cytochrome-C release compared to doxorubicin alone / total cells from which cytochrome-C was released, ginsenoside and doxorubicin: 10 μg/mL ginsenoside 24 hours; for increase in level of cytochrome-C release compared to doxorubicin alone: then 5 μg/mL doxorubicin 4 hours; for total cells from which cytochrome-C was released, ginsenoside and doxorubicin: then 5 μg/mL doxorubicin
Protocol: A culture medium containing 10 μg/mL of C-K or PPD was added to MCF-7 cells, was cultured for 24 hours, and was then replaced with a culture medium containing 5 μg/mL of doxorubicin, followed by 0 or 4 hours of culturing. The cultured cells were fixed by adding 4% paraformaldehyde and were perforated by adding an 0.5% Triton X-100 solution, followed by 30 minutes of immunostaining using a cytochrome-C antibody. After staining, the cells were washed with PBS. Stained second antibodies were heated for 30 minutes and washed with PBS, followed by being recorded with a confocal microscope, to measure a level of fluorescence (FIG. 4a).
In this regard, whether the level of cytochrome-C release changes depending on treatment time of doxorubicin was investigated. In other words, a culture medium containing 10 μg/mL of C-K or PPD was added to MCF-7 cells, was cultured for 24 hours, and was then replaced with a culture medium containing 5 μg/mL of doxorubicin, followed by 0, 0.5, 1, 2, 4, or 6 hours of culturing. The immunofluorescent staining was performed in the same manner as previously described except the culturing time to measure the number of cytochrome-C released into cytoplasm from mitochondria (FIG. 4b). As a control group, an experiment group untreated with ginsenoside was used.

[6] = system: MCF-7 cells; experiment: Fluorescence staining of mitochondria with Tom-20; type: cell-based, human; conditions: 10 μg/mL, 24 hours, Tom-20 staining
Protocol: In other words, a culture medium containing 10 μg/mL of C-K or PPD was added to MCF-7 cells and was cultured for 24 hours. The cultured cells were fixed by adding 4% paraformaldehyde and were perforated by adding a 0.5% Triton X-100 solution, followed by staining the mitochondria using Tom-20. The stained cells were washed with PBS and were recorded with a confocal microscope to measure a level of fluorescence (FIG. 5a).

[7] = system: MCF-7 cells; experiment: Western blot of mitochondrial fission- and fusion-related proteins; type: cell-based, human; conditions: 10 μg/mL, 24 hours
Protocol: In this regard, Western blot analysis was performed for each cultured cell to compare an expression level of the mitochondrial fission-related proteins (Drp1, Fis1, or OPA-3) and mitochondrial fusion-related proteins (Mfn1. Mfn2, or OPA1) (FIG. 5b).

[8] = system: MCF-7 cells; experiment: WST-1 viability of siRNA-treated MCF-7 cells treated with doxorubicin or tamoxifen; type: cell-based, human; conditions: siRNA-treated MCF-7, 5 μM doxorubicin or 20 μM tamoxifen, 24 hours
Protocol: Meanwhile, each synthesized siRNA was inoculated into MCF-7 cells and was cultured for 12 hours. The cells were again cultured in a standard culture medium in which siRNA is not contained for 48 hours, followed by treating with 5 μM doxorubicin or 20 μM tamoxifen and culturing for 24 hours. After culturing, viabilities of the MCF-7 cells were measured via WST-1 analysis (FIG. 6b). As a control group, cells cultured without treating with doxorubicin or tamoxifen were used.

[9] = 10 μg/mL PPD and 5 μg/mL doxorubicin, 0-6 hours

For `NC(=O)c1cccc(N)c1` [PARP inhibitor, 3-AB, reference compound], the “anticancer effect of doxorubicin in cells treated with the inhibitor” value [1] was “inhibited”.

`CC(C)=CCC[C@](C)(O)[C@H]1CC[C@]2(C)[C@@H]1[C@H](O)C[C@@H]1[C@@]3(C)CC[C@H](O)C(C)(C)[C@@H]3CC[C@]12C` [PPD, protopanaxadiol] was tested, and the “anticancer activity against breast cancer cells (viability)” value [2] was “relatively excellent anticancer activity”, the “effect on anticancer activity of doxorubicin” value [3] was “could enhance an anticancer activity by doxorubicin” and the “anticancer activity with doxorubicin compared to only doxorubicin” value [3] was “increased”. The “formation of cleaved-PARP over time compared to doxorubicin only” value [4, 9] was “faster”, the “formation of cleaved-caspase-9 over time compared to doxorubicin only” value [4, 9] was “faster” and the “level of cleaved-PARP, effect of ginsenoside treatment” value ([4]; 24 hours) was “not affected”. For the same molecule, the “level of cleaved-caspase-9, effect of ginsenoside treatment” value ([4]; 24 hours) was “significantly increased”, the “level of pJNK, effect of ginsenoside treatment” value ([4]; 24 hours) was “not affected” and the “anticancer activity of doxorubicin under PARP activity inhibitor with ginsenoside” value [1] was “somewhat recovered”. The “increase in level of cytochrome-C release compared to doxorubicin alone” value [5] was “higher”, the “total cells from which cytochrome-C was released, ginsenoside and doxorubicin” value ([5]; after 6 hours) was 43% and the “state of mitochondria compared to negative control group” value [6] was “damaged”. The “expression level of mitochondrial fission-related protein OPA-3” value [7] was “increased” and the “expression level of mitochondrial fusion-related protein Mfn2” value [7] was “decreased”.

For `CC(C)=CCC[C@](C)(O[C@@H]1OC(CO)[C@@H](O)C(O)C1O)C1CC[C@]2(C)C1[C@H](O)CC1[C@@]3(C)CCC(O)C(C)(C)C3CC[C@]12C` (some centres unmarked) [C-K, compound-K], the “anticancer activity against breast cancer cells (viability)” value [2] was “relatively excellent anticancer activity”, the “effect on anticancer activity of doxorubicin” value [3] was “could enhance an anticancer activity by doxorubicin” and the “anticancer activity with doxorubicin compared to only doxorubicin” value [3] was “increased”. The “level of cleaved-PARP, effect of ginsenoside treatment” value ([4]; 24 hours) was “not affected”, the “level of cleaved-caspase-9, effect of ginsenoside treatment” value ([4]; 24 hours) was “noticeably increased” and the “level of pJNK, effect of ginsenoside treatment” value ([4]; 24 hours) was “not affected”. For the same molecule, the “anticancer activity of doxorubicin under PARP activity inhibitor with ginsenoside” value [1] was “somewhat recovered”, the “increase in level of cytochrome-C release compared to doxorubicin alone” value [5] was “higher” and the “total cells from which cytochrome-C was released, ginsenoside and doxorubicin” value ([5]; after 6 hours) was 20%. The “state of mitochondria compared to negative control group” value [6] was “damaged”, the “expression level of mitochondrial fission-related protein OPA-3” value [7] was “increased” and the “expression level of mitochondrial fusion-related protein Mfn2” value [7] was “decreased”.

With `COC(=O)CC[C@H](NC(=O)[C@H](CC(C)C)NC(=O)OCc1ccccc1)C(=O)N[C@@H](Cc1cnc[nH]1)C(=O)N[C@@H](CC(=O)OC)C(=O)CF` [caspase-9 inhibitor, Z-LEHD-FMK, reference compound] (Cbz-LE(OMe)HD(OMe)-CH2F) the “anticancer effect of doxorubicin in cells treated with the inhibitor” value [1] was “inhibited”.

In the case of `COc1cccc2c1C(=O)c1c(O)c3c(c(O)c1C2=O)C[C@@](O)(C(=O)CO)C[C@@H]3O[C@H]1C[C@H](N)[C@H](O)[C@H](C)O1` [doxorubicin, reference compound], the CC50 ([3]; Homo sapiens, MCF7, 24 h, read-out: LC50) is reported as ~10 µg/mL (≈ 18.4 µM), the “level of cleaved-PARP” value ([4]; 5 μg/mL doxorubicin, 24 hours) is reported as “increased” and the “level of cleaved-caspase-9” value ([4]; 5 μg/mL doxorubicin, 24 hours) is reported as “increased”. The “level of pJNK” value ([4]; 5 μg/mL doxorubicin, 24 hours) was “increased”, the “level of cytochrome-C release compared to no doxorubicin” value ([5]; 5 μg/mL doxorubicin, 4 hours) was “increased” and the “total cells from which cytochrome-C was released” value ([5]; only doxorubicin 5 μg/mL, after 6 hours) was 7%. The “anticancer activity on cells with mitochondrial fission” value [8] was “significantly higher anticancer activity” and the “change of anticancer activity depending on siRNA (Mfn2 inhibited compared to Mfn1 inhibited)” value [8] was “significantly increased”.

`CC/C(=C(\c1ccccc1)c1ccc(OCCN(C)C)cc1)c1ccccc1` [tamoxifen] was tested, and the “anticancer activity on cells with mitochondrial fission” value [8] was “showed the anticancer activity” and the “change of anticancer activity depending on siRNA (Mfn2 inhibited compared to Mfn1 inhibited)” value [8] was “no difference”.
